Where “and” joins values, the source holds several entries; their conditions need not be identical. Identical values can stand only once. Entries after “also recorded” stand apart in the source; their conditions may differ. Like-named read-outs stand apart in the source and are kept apart here. Square brackets hold non-standard residues; d marks the D form. Peptide text beside a SMILES is read from it. * marks the point of attachment. Lys(5-FITC)NH2 = NC(=O)[C@H](CCCCNC(=S)Nc1ccc2c(c1)C(=O)OC21c2ccc(O)cc2Oc2cc(O)ccc21)N*; FITC = O=C1OC2(c3ccc(O)cc3Oc3cc(O)ccc32)c2ccc(NC(=S)*)cc21; Phe(4-F) = N[C@@H](Cc1ccc(F)cc1)C(=O)O; d2Nal = N[C@H](Cc1ccc2ccccc2c1)C(=O)O; NMeL = CN[C@@H](CC(C)C)C(=O)O; dNle = CCCC[C@@H](N)C(=O)O; Abu = CC[C@H](N)C(=O)O

Results on 6 compounds are retold here after patent publication US20170112896A1, “SMALL MOLECULE RAC OR RHO INHIBITORS” (Ohio State Innovation Foundation, priority 2014, published 2017).

Series [1] deals with T1, K-Ras(G12V) (Homo sapiens, UniProt P01116, G12V).
T1 construct: The G12V mutant K-Ras (amino acids 1-185) was recombinantly fused to glutathione 5-transferase (GST) at its N-terminus; GST (N, cleaved yes); made in house; host or cells: Escherichia coli BL21
T1 sequence (P01116 1-185 isoform P01116-2 G12V): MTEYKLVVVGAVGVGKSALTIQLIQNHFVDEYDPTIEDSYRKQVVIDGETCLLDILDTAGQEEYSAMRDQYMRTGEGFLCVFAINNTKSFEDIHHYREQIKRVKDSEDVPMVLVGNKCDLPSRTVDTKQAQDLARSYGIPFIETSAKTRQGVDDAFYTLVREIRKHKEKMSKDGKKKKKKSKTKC
Kind of series: Fluorescence anisotropy (FA) binding of FITC-labeled cyclic peptides to K-Ras. To be noted: Table 1, resynthesized FITC-labeled library hits, read-out: KD (μM), affinity for K-Ras.
Method: The cells were grown at 37° C. in Luria broth supplemented with 0.05 mg/mL kanamycin to an OD600 of 0.6 when protein expression was induced by addition of IPTG for a final concentration of 1 mM. After 5 h of incubation at 30° C., the cells were harvested by centrifugation. The cell pellets were lysed by sonication in a lysis buffer (40 mM Tris-HCl, 150 mM NaCl, 0.5% Triton X-100, 5 mM (3-mercaptoethanol, pH 8.0) containing a protease inhibitor cocktail tablets (Sigma). The crude cell lysate was loaded onto a glutathione-Sepharose 4B column (GE Healthcare) and the bound GST-K-Ras was eluted with an elution buffer (50 mM Tris, pH 8.0, 10 mM glutathione). After buffer exchange into PBS, the protein was quickly frozen and stored at −80° C. To generate K-Ras without the GST tag, the GST-K-Ras protein (2 mg in PBS) was treated with 20 units of thrombin (GE Healthcare) for 16 h at 4° C. The reaction mixture was passed through a glutathione-Sepharose 4B column to remove the released GST and the resulting K-Ras protein was stored at −80° C.
(§3) For cyclic peptides derived from single library beads (library screening), K-Ras protein (non-GST fusion, 0-20 μM) was incubated with the TMR-labeled peptide (50 or 100 nM) in 20 μL, of the blocking buffer for 2.5 h at 24° C. The FA values were measured on a Molecular Devices Spectramax M5 spectrofluorimeter, with excitation and emission wavelengths at 545 and 585 nm, respectively. Equilibrium dissociation constants (KD) were determined by plotting the FA values as a function of K-Ras concentration and fitting the data to the equation
(§4) where Y is the measured anisotropy at a given K-Ras concentration x; L is the peptide concentration; Qb/Qf is the correction fact for dye-protein interaction; Amax is the maximum anisotropy at saturating K-Ras concentration; and Amin is the minimum anisotropy. FA analyses with resynthesized FITC-labeled peptides were similarly carried oμL, except that the excitation and emission wavelengths were at 494 and 520 nm, respectively.

Series [2] addresses T2, Ras(G12V)-Raf RBD interaction (Homo sapiens, UniProt P01116, G12V).
T2 construct: The G12V mutant K-Ras (amino acids 1-185) was recombinantly fused to glutathione 5-transferase (GST) at its N-terminus; GST (N, cleaved yes); made in house; host or cells: Escherichia coli BL21
Kind of series: HTRF assay, inhibition of Ras-Raf RBD interaction. Type of series: binding. To be noted: relative to 9A1.
Method: Recombinant HA-tagged K-Ras (no GST, 50 nM), GST-Raf RBD (50 nM each), a monoclonal anti-HA antibody labeled with acceptor d2 (2 μg/mL), a monoclonal anti-GST antibody labeled with donor Tb (0.25 μg/mL) (Cisbio), and increasing concentrations of cyclic peptide (0-20 μM) were mixed in PBS (total volume of 20 μL) in a 384-well plate. The plate was incubated overnight at 4° C. and the HTRF signal was measured on a Molecular Devices Spectramax M5 or a Tecan infinite M1000 Pro plate reader. The data were analyzed by Prism 6.0 from Graphpad Software, Inc. (La Jolla, Calif.) and IC50 values were obtained by fitting the data to dose-response-inhibition curve.

Series [3] deals with Akt, Mek and Erk phosphorylation in H1299 cells. The series is described as follows: Western blot of Ras signaling (Akt, Mek, Erk phosphorylation) in H1299 cells. Type of series: cell-based. The note with it: for IC50: 10 min treatment. An excerpt:
(§1) Two well characterized Ras effector pathways are the Raf-Mek-Erk and PI3K-Akt signaling pathways (Karnoub, A. E. et al. (2008) Nat Rev. Mol. Cell Biol. 9:517). To determine whether the cyclic peptides inhibited the intracellular Ras activity, Applicant monitored the phosphorylation levels of Mek, Erk, and Akt in cells before and after treatment with the Ras inhibitors. […] In order to rule out that the observed downregulation of P-Mek, P-Erk and P-Akt is caused by inhibition of EGFR signaling, the effect of Cyclosrasin 9A5 on the phosphorylation of the EGFR was tested by performing an IP/Western Blot experiment (FIG. 3E). Active, signaling EGFR is highly autohophosphorylated.

Series [4] relates to EGF receptor phosphorylation. Kind of series: IP/Western blot of EGFR phosphorylation. To be noted: 13 μM. Type of series: cell-based.
Text: as §1

In series [5] the test system is Akt, Mek and Erk phosphorylation in H1975 cells. Kind of series: Western blot of Akt, Mek, Erk phosphorylation in H1975 cells. Type of series: cell-based. To be noted: 10 μM, 10 min.
Series [6] deals with Akt, Mek and Erk phosphorylation in H1650 cells. The series is described as follows: Western blot of Akt, Mek, Erk phosphorylation in H1650 cells. The class given is cell-based. To be noted: 10 μM, 10 min.
Series [7] deals with Akt, Mek and Erk phosphorylation in A549 cells. Kind of series: Western blot of Akt, Mek, Erk phosphorylation in A549 cells. Type of series: cell-based. The note with it: 10 μM, 10 min.
Series [8] relates to Rac and Rho signaling (cofilin, Paxilin, FAK, Mek Ser298, c-Raf Ser338) in H1299 cells. Kind of series: Western blot of effector proteins of Rac and Rho signaling in H1299 cells. Type of series: cell-based. The note with it: 13 μM.
Series [9] concerns actin filaments in A549 cells. The series is described as follows: Actin filament staining (phalloidin-FITC) and cell morphology. Type of series: cell-based. The note with it: cells exposed to peptide.
Series [10] deals with A549 lung cancer cells.
Series [11] concerns the target T3, H-Ras(WT) (Homo sapiens, UniProt P01112).
T3 construct: purchased Origene (Rockville, Md.)
Kind of series: FA binding of FITC-9A5 to H-Ras. The note with it: FITC-labeled peptide. An excerpt:
(§2) Reagents for peptide synthesis were purchased from Peptides International (Louisville, Ky.), NovaBiochem (La Jolla, Calif.), Anaspec (San Jose, Calif.), Chem-Impex International Inc. (Wood Dale, Ill.), or Aapptec (Lousiville, Ky.). N-Hydroxysuccinimidyl biotin was purchased from Chem-Impex International (Wood Dale, Ill.) and N-(9-fluorenylmethoxycarbonyloxy)succinimide (Fmoc-OSu) from Advanced ChemTech. Phenyl isothiocyanate (PITC), isopropyl13-D-1-thiogalactopyranoside (IPTG), protease inhibitor cocktail tablets, ampicillin and kanamycin were purchased from Sigma-Aldrich. Cell proliferation kit (MTT) was purchased from Roche (Indianapolis, Ind.). Cell culture media, fetal bovine serum, penicillin-streptomycin, 0.25% trypsin-EDTA, DPBS (2.67 mM potassium chloride, 1.47 mM potassium phosphate monobasic, 137 mM sodium chloride, 8.06 mM sodium phosphate dibasic), streptavidin-coated Dynabeads M-280, Texas red N-hydroxysuccinimide ester, and tetramethylrhodamine (TMR) azide were purchased from Invitrogen (Carlsbad, Calif.). Anti-GST-Tb and Anti-HA d2 antibodies were purchased from Cisbio (Bedford, Mass.). Recombinant K-Ras WT, H-Ras WT, Rac1, RhoA and CDC42 were purchased from Origene (Rockville, Md.). Solvents and other chemical reagents were purchased from Sigma-Aldrich or VWR (West Chester, Pa.).

In series [12] the target is T4, bovine serum albumin (Bos taurus, UniProt P02769).
T4 construct: from tissue; host or cells: bovine serum (from the name only)
T4 sequence (P02769 25-607): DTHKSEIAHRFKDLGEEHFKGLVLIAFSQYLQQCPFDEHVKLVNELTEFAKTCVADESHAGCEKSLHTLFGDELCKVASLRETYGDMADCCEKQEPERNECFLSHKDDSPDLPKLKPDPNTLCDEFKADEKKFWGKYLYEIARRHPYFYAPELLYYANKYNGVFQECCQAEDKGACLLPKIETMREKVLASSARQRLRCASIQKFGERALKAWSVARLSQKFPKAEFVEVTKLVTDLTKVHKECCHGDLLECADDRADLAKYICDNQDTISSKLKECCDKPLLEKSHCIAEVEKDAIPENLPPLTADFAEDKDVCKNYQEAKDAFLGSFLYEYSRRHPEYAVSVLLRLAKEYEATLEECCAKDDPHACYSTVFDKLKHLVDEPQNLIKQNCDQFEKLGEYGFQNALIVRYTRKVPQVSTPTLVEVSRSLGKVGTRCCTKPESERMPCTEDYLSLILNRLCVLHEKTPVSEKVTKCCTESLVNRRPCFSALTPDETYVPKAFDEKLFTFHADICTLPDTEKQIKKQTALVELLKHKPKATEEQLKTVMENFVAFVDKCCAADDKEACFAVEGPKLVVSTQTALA
Kind of series: FA binding of FITC-9A5 to control protein BSA.
Method: The FA values were measured on a Molecular Devices Spectramax M5 spectrofluorimeter, with excitation and emission wavelengths at 545 and 585 nm, respectively. Equilibrium dissociation constants (KD) were determined by plotting the FA values as a function of K-Ras concentration and fitting the data to the equation
as §4

Series [13] has as its target T5, Rac1 (Homo sapiens, UniProt P63000).
T5 construct: purchased Origene (Rockville, Md.)
The series is described as follows: FA binding of FITC-9A5 to recombinant Rac1.
Text: as §2

Series [14] concerns the target T6, RhoA (Homo sapiens, UniProt P61586).
T6 construct: purchased Origene (Rockville, Md.)
The series is described as follows: FA binding of FITC-9A5 to recombinant RhoA.
Text: as §2

In series [15] the target is Ras-GTP (Homo sapiens, UniProt P01116, G12V). Kind of series: biochemical.
Ras-GTP, sequence (P01116 1-185 isoform P01116-2 G12V): as the sequence (P01116 1-185 isoform P01116-2 G12V) above
Method: (§5) To prepare Ras-GTP, purified K-Ras was incubated with 20 mM EDTA plus 2 mM GTP in PBS overnight at 4° C. After addition of 40 mM of MgCl2, the protein was dialyzed against PBS.
as §3
(§6) FA analyses with resynthesized FITC-labeled peptides were similarly carried oμL, except that the excitation and emission wavelengths were at 494 and 520 nm, respectively.
For series [16], the target named is Ras-GPPNP (Homo sapiens, UniProt P01116, G12V). Kind of series: biochemical.
Ras-GPPNP, sequence (P01116 1-185 isoform P01116-2 G12V): as above
Method: as §5, §3, §6
Series [17] concerns the target Ras-GDP (Homo sapiens, UniProt P01116, G12V). The series is described as follows: biochemical.
Method: as §5, §3, §6

T2 sequence (P01116 1-185 isoform P01116-2 G12V): as above
T6 sequence (P61586 whole entry): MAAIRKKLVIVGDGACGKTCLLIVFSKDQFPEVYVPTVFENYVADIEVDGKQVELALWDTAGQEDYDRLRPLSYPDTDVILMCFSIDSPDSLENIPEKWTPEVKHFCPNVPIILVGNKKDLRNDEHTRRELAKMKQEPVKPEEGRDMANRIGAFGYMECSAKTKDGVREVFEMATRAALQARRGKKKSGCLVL
T3 sequence (P01112 whole entry): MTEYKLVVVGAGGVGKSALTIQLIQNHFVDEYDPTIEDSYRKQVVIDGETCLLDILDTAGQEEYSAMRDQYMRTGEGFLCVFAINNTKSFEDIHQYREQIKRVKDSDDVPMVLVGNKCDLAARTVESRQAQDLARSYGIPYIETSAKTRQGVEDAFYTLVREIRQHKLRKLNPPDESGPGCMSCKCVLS
Ras-GDP, sequence (P01116 1-185 isoform P01116-2 G12V): as the sequence (P01116 1-185 isoform P01116-2 G12V) above

As for `CC(C)C[C@H]1C(=O)N[C@@H](CCC(=O)N[C@@H](CCCCNC(=S)Nc2ccc3c(c2)C(=O)OC32c3ccc(O)cc3Oc3cc(O)ccc32)C(N)=O)C(=O)N[C@@H](CCCNC(=N)N)C(=O)N[C@@H](CCCNC(=N)N)C(=O)N[C@H](Cc2ccc3ccccc3c2)C(=O)N[C@@H](CCCNC(=N)N)C(=O)N[C@@H](Cc2ccc(F)cc2)C(=O)N[C@H](CC(N)=O)C(=O)N[C@H](Cc2ccc3ccccc3c2)C(=O)N1C` [Cyclorasin 3A] (cyclo(E(Lys(5-FITC)NH2)RR[d2Nal]R[Phe(4-F)][dN][d2Nal][NMeL])), in series [1], the Kd worked out at 0.91 ± 0.23 µM.

In the case of `CC(C)[C@H]1NC(=O)[C@H](Cc2ccc(O)cc2)NC(=O)[C@H](CCCNC(=N)N)NC(=O)[C@H](Cc2ccc(F)cc2)NC(=O)[C@H](CCCNC(=N)N)NC(=O)[C@@H](Cc2ccc3ccccc3c2)NC(=O)[C@H](CCCNC(=N)N)NC(=O)[C@H](CCCNC(=N)N)NC(=O)[C@H](CCC(=O)N[C@@H](CCCCNC(=S)Nc2ccc3c(c2)C(=O)OC32c3ccc(O)cc3Oc3cc(O)ccc32)C(N)=O)NC(=O)[C@H](Cc2ccc(F)cc2)NC1=O` [Cyclorasin 7A] (cyclo(E(Lys(5-FITC)NH2)RR[d2Nal]R[Phe(4-F)]RY[dV][Phe(4-F)])), the Kd in series [1] was determined as 0.88 ± 0.27 µM.

Take `CCCC[C@H]1NC(=O)[C@H](Cc2ccc(F)cc2)NC(=O)[C@H](CCCNC(=N)N)NC(=O)[C@@H](Cc2ccc3ccccc3c2)NC(=O)[C@H](CCCNC(=N)N)NC(=O)[C@H](CCCNC(=N)N)NC(=O)[C@H](CCCNC(=N)N)NC(=O)[C@@H](C)NC(=O)[C@H]([C@@H](C)O)NC(=O)[C@H](Cc2c[nH]c3ccccc23)NC(=O)[C@H](CCC(N)=O)NC1=O` [Cyclorasin 9A5, (Trp-Thr-ala-Arg-Arg-Arg-nal-Arg-Fpa-nle-Gln)] (cyclo(WT[dA]RRR[d2Nal]R[Phe(4-F)][dNle]Q)): the “higher potency than 9A1 against K-Ras” value in [2] is recorded as 3 fold. Moreover, the “basal phosphorylation of Mek and Akt” value in [3] (H1299 cells unstimulated with EGF, 10 μM for 10 min) is on record as “inhibited”. Moreover, the “Mek, Erk and Akt phosphorylation” value in series [3] (H1299 cells, 10 μM, 10 min) is “almost completely abolished”; in series [5], “almost completely abolished; also recorded: can be inhibited”; in series [6] it was “almost completely abolished; also recorded: can be inhibited”; in series [7] it was “significant Mek and Erk phosphorylation remained”. The “EGF-induced phosphorylation of Akt and Mek” value in series [3] (H1299 cells, 13 μM, 5 min) is “significant reduction”; in [3] (H1299 cells, 13 μM, ≧10 min), “completely abolished”. Besides, the “phosphorylation level of Erk” value in series [3] (H1299 cells, 13 μM, time course) was “decreased, but to a lesser extent and at a later time point”. For the same compound, the half-inhibitory concentration (IC50) is around 5000 nM in series [3] (H1299 cells, read-out: IC50, inhibition of Akt phosphorylation) and around 5000 nM in [3] (H1299 cells, read-out: IC50, inhibition of Mek phosphorylation). The EGFR phosphorylation level entry in series [4] is listed as “does no affect; also recorded: no effect”. In [8], the “phosphorylation of Paxilin (Tyr118), FAK (Tyr397), Mek (Ser298) and c-Raf (Ser338)” value is “dephosphorylated”. Also, the phosphorylation of cofilin entry in [8] was “decreased”. The cell morphology entry in [9] is given as “rapid morphological changes”. Further, the “cell permeability / intracellular fluorescence” value in [10] is recorded as “improved cell permeability”.

As for `CCCC[C@H]1NC(=O)[C@H](Cc2ccc(F)cc2)NC(=O)[C@H](CCCNC(=N)N)NC(=O)[C@@H](Cc2ccc3ccccc3c2)NC(=O)[C@H](CCCNC(=N)N)NC(=O)[C@H](CCCNC(=N)N)NC(=O)[C@@H](CCCNC(=N)N)NC(=O)[C@@H](C)NC(=O)[C@H]([C@@H](C)O)NC(=O)[C@H](Cc2c[nH]c3ccccc23)NC(=O)[C@H](CCC(N)=O)NC1=O` [Cyclorasin 9A6] (cyclo(WT[dA][dR]RR[d2Nal]R[Phe(4-F)][dNle]Q)), the “higher potency than 9A1 against K-Ras” value in [2] stood at 3 fold. In series [10], the “cell permeability / intracellular fluorescence” value is listed as “improved cell permeability”.

Regarding `CC[C@@H]1NC(=O)[C@@H](Cc2ccccc2)NC(=O)[C@H](Cc2ccc(F)cc2)NC(=O)[C@@H](CC(N)=O)NC(=O)[C@H](Cc2ccc(F)cc2)NC(=O)[C@H](CCCNC(=N)N)NC(=O)[C@@H](Cc2ccc3ccccc3c2)NC(=O)[C@H](CCCNC(=N)N)NC(=O)[C@H](CCCNC(=N)N)NC(=O)[C@H](CCC(=O)N[C@@H](CCCCNC(=S)Nc2ccc3c(c2)C(=O)OC32c3ccc(O)cc3Oc3cc(O)ccc32)C(N)=O)NC1=O` [Cyclorasin 13A] (cyclo([Abu]E(Lys(5-FITC)NH2)RR[d2Nal]R[Phe(4-F)][dN][Phe(4-F)][dF])), the dissociation constant Kd in series [1] came out at 1 ± 0.2 µM.

Regarding `CCCC[C@H]1NC(=O)[C@H](Cc2ccc(F)cc2)NC(=O)[C@H](CCCNC(=N)N)NC(=O)[C@@H](Cc2ccc3ccccc3c2)NC(=O)[C@H](CCCCNC(=S)Nc2ccc3c(c2)C(=O)OC32c3ccc(O)cc3Oc3cc(O)ccc32)NC(=O)[C@H](CCCNC(=N)N)NC(=O)[C@H](CCCNC(=N)N)NC(=O)[C@@H](C)NC(=O)[C@H]([C@@H](C)O)NC(=O)[C@H](Cc2c[nH]c3ccccc23)NC(=O)[C@H](CCC(N)=O)NC1=O` [FITC-9A5] (cyclo(K(FITC)[d2Nal]R[Phe(4-F)][dNle]QWT[dA]RR)), the Kd is 500 nM in series [11]; 30000 nM and 31000 nM in series [12]; 250 nM in series [13]; 180 nM in [14]; 440 nM in series [15]; 640 nM in [16]. In [17], this compound registered an equilibrium dissociation constant (Kd) of 2500 nM. Besides, the “cell permeability / intracellular fluorescence” value in [10] is listed as “intense, defuse fluorescence throughout the cytoplasm”.
